We go through two molecules from patent US20190167589A1, “BIOMIMETIC PROTEOLIPID VESICLE COMPOSITIONS AND USES THEREOF” (The Methodist Hospital, priority 2016, published 2019).

Assay [1] addresses T1, Tyrosyl DNA Phosphodiesterase 2 (TDP2) (Homo sapiens, UniProt O95551).
T1 sequence (O95551 1-362): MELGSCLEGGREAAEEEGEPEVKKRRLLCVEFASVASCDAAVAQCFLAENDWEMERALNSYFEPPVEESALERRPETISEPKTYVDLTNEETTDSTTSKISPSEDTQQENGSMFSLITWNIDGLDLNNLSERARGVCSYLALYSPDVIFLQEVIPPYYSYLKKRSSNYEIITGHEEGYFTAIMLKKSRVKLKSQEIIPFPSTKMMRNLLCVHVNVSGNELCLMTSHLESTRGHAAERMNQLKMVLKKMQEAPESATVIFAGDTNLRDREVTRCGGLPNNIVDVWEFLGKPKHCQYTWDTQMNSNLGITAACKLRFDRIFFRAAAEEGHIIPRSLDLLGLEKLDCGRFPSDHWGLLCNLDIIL
Kind of assay: High-throughput screening for TDP2 inhibitory activity. It counts as biochemical.

The subject of another assay is human lung cancer cells. Kind of assay: Synergy with Etoposide in killing cancer cells in vitro. It counts as cell-based.
Assay [2] has as its system LPS-induced ear inflammation. Put plainly: Anti-inflammatory efficacy in LPS-induced local ear inflammation. The class given is in vivo, mice. The settings on record: treatment 30 min after LPS; DXM 5 mg/kg where loaded. The procedure:
Explanted mouse ears were washed twice with PBS and embedded in a cryomold in O.C.T. (Tissue-Tek® O.C.T. Compound, Sakura® Finetek), and instantly frozen at −80° C. Ten μm-thick slides were obtained cutting ears block with a cryostat at −20° C. The slides were stored at −20° C. For hematoxylin and eosin (H/E) staining, slides were thawed, hydrated, washed and stained with hematoxylin and eosin (Sigma-Aldrich).
Once cryo-sections were obtained as described in the previous paragraph, immunofluorescence (IF) staining was performed as previously reported (Gelain et al., 2010). Briefly, slides were thawed and blocked with BSA 5% (Sigma-Aldrich) PBS 1× solution. After washing, they were incubated overnight at 4° C. with anti-neutrophil antibody (Alexa Fluor® 647 anti-mouse Ly-6G/Ly-6C (Gr-1) Biolegend. Excess anti-neutrophil antibody was washed out with PBS 1X. Cells nuclei were stained with DAPI. Slides were sealed with ProLong Gold antifade reagent (Life Technologies™). Images were captured with an Eclipse® Ti Inverted Fluorescent Microscope equipped with Hamamatsu Digital Camera C11440 ORCA-Flash 2.8.
Particles were administrated 30 min after LPS injection.
Explanted Mice ears were washed twice with PBS and embedded in a cryomold in O.C.T. (Tissue-Tek® O.C.T. Compound, Sakura® Finetek), and instantly frozen at −80° C. […]

As for `COc1cc2c(cc1OC)-c1c(OC)c(OC)cc3c1[C@H](C2)N(C)CC3` [Glaucine], the TDP2 inhibitory activity entry in assay [1] is on record as “TDP2 inhibitor”. Further, in the assay on human lung cancer cells, the “synergy with Etoposide in cancer cell killing” value was “able to enhance Etoposide mediated cancer cell killing”.

Turning to `C[C@@H]1C[C@H]2[C@@H]3CCC4=CC(=O)C=C[C@]4(C)[C@@]3(F)[C@@H](O)C[C@]2(C)[C@@]1(O)C(=O)CO` [free DXM, Dexamethasone], the “tissue architecture (H&E staining)” value in assay [2] is on record as “alteration of tissue architecture”.
